Results published in patent US12043625B2, “Pyridine derivatives with c-linked cyclic substituents as cGAS inhibitors” (BOEHRINGER INGELHEIM INTERNATIONAL GMBH, priority 2021, dated 2024).

Legend:
[1] = test system: IFN induction in virus-stimulated THP1 cells; test: Human cGAS cell assay, baculovirus-stimulated THP1-Dual cells, Lucia luciferase reporter (THP1(vir) IC50); format: cell-based; conditions: for IC50: Homo sapiens, THP-1, baculovirus-stimulated THP1-Dual cells, 18 h; for Ratio THP(cGAMP) IC50/THP(vir) IC50: selectivity for cGAS inhibition;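 as to all read-outs here: IRF-dependent luminescence, 8 concentrations up to 10 µM in 1% DMSO, 0% = unstimulated cells, 100% = DMSO plus virus, counter assay stimulated with cGAMP downstream of cGAS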
Description: THP1-Dual™ cells (InvivoGen #thpd-nfis) expressing IRF dependent Lucia luciferase reporter were used as basis for both assays. For the detection of cellular cGAS activity cells were stimulated by a baculovirus (pFastbac-1, Invitrogen, no coding insert) infection that delivers the cGAS enzyme stimulating double-stranded DNA (measurement of THP1(vir) IC50).
(§1) For the counter assay, cells were stimulated by cGAMP (SigmaAldrich #SML1232) to activate the identical pathway independent and directly downstream of cGAS (measurement of THP1(cAMP) IC50). Pathway activity was monitored by measuring the Lucia luciferase activity induced by either DNA stimulated cGAS enzyme activity (measurement of THP1^(vir) IC50) or by cGAMP directly (measurement of THP1(cAMP) IC50, counter assay).
Typically, 8 concentrations were used with the highest concentration at 10 μM in the final assay volume followed by ˜1:5 dilution steps. DMSO concentration was set to 1% in the final assay volume. The 384 well assay plate contained 21 test compounds (column 1-22), and DMSO in column 23 and 24.
The baculovirus solution was then added 1:200 (may have varied according to virus batch) to the cells (measurement of THP1(vir) IC50).
(§2) 30 μL of the cell/virus-mix were added to each well of the compound plate from column 1-23 via MultiDrop Combi dispenser (5000 cells/well). In column 24, 30 μl/5000 cells/well without virus were added as a low control.
(§3) The plates were then incubated for 18 h at 37° C. in a humidified incubator.
(§4) Following that, 15 μL of QuantiLuc detection reagent (InvivoGen #rep-qlcg5) were added to each well using a MultiDrop Combi. Measurement was done immediately after the addition using an EnVision reader (US-luminescence read-mode).
Data Evaluation and Calculation:
(§5) For data evaluation and calculation, the measurement of the low control was set as 0% control and the measurement of the high control was set as 100% control. The IC50 values were calculated using the standard 4 parameter logistic regression formula. Calculation: [y=(a−d)/(1+(x/c)^b)+d], a=low value, d=high value; x=conc M; c=1C50 M; b=slope

[2] = test system: IFN induction in cGAMP-stimulated THP1 cells; test: cGAMP stimulated counter cell assay, THP1-Dual cells, Lucia luciferase reporter (THP1(cGAMP) IC50); format: cell-based; conditions: Homo sapiens, THP-1, THP1-Dual cells stimulated with 10 μM cGAMP;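 also: IRF-driven Lucia luciferase luminescence after 18 h at 37° C, compound series topping at 10 µM with 1% DMSO, unstimulated wells as 0% and DMSO wells as 100%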
Description: 6.2 Method: Human cGAS Cell Assay and cGAMP Stimulated Counter Cell Assay (THP1(vir) IC50 and THP1(cGAMP) IC50)
THP1-Dual™ cells (InvivoGen #thpd-nfis) expressing IRF dependent Lucia luciferase reporter were used as basis for both assays.
as §1
Compounds were delivered in 10 mM DMSO solution, serially diluted and transferred to the 384 well assay plate (Greiner #781201) using an Echo acoustic dispenser. Typically, 8 concentrations were used with the highest concentration at 10 μM in the final assay volume followed by ˜1:5 dilution steps. DMSO concentration was set to 1% in the final assay volume. The 384 well assay plate contained 21 test compounds (column 1-22), and DMSO in column 23 and 24.
as §2, §3, §4
Data Evaluation and Calculation:
as §5

Human cGAS = Human cGAS (Homo sapiens (Human), UniProt Q8N884); test: Human cGAS enzyme assay (hcGAS IC50, in vitro), cGAMP formation by RapidFire MS; format: biochemical; conditions: 45 bp dsDNA, GTP/ATP;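 also: compounds preincubated 60 min, then GTP and ATP (30 µM each) added for 90 min at room temperature, cGAMP read relative to cyclic-di-GMP internal standard, no-enzyme/DNA wells as 0%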
Human cGAS, sequence (Q8N884 whole entry): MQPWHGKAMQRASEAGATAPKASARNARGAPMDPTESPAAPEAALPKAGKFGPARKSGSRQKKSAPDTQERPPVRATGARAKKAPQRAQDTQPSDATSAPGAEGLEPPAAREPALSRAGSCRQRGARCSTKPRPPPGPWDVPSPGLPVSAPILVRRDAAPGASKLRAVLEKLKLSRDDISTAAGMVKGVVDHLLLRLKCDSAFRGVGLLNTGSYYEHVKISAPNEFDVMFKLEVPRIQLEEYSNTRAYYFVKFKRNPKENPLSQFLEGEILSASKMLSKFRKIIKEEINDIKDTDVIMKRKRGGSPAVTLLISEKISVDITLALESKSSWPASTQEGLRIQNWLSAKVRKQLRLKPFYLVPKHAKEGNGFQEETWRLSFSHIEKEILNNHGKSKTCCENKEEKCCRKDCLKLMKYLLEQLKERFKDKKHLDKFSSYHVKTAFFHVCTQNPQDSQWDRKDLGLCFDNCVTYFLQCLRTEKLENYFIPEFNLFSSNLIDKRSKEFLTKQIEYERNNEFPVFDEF

[3] = test system: IFN induction in dsDNA-stimulated human whole blood; test: Human whole blood assay, dsDNA transfection, IFNα2a production (hWB IC50); format: cell-based;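 also: cGAS pathway activity, IFNα2a in plasma by MSD immunoassay after 22 h at 37 °C, 8 concentrations up to 10 µM in 0.1% DMSO, DMSO controls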
Protocol: For the detection of cellular cGAS activity human whole blood was stimulated by transfection with double stranded DNA. Pathway activity was monitored by measuring the IFNα2α production.
Typically, 8 concentrations were used with the highest concentration at 10 μM in the final assay volume followed by ˜1:5 dilution steps. DMSO concentration was set to 0.1% in the final assay volume. The 96-well assay plate contained 10 test compounds, and DMSO in control wells.
Whole blood was kept at room temperature for a maximum of 3 hours after collection until use in the assay.
160 μl of the whole blood samples was transferred to each well of the 96-well assay plates filled with compound/OptiMEM. All assay plates were prepared as duplicates with blood from different donors. Blood plates were kept at room temperature for 60 minutes and continuous shaking with 450 rpm, covered with the lid, but not sealed.
20 μl OptiMEM and 9.6:1 Fugene was added to all low control wells.
After covering assay plates with aera seals and the lid, blood plates were kept at room temperature for 30 minutes and continuous shaking with 450 rpm, followed by an overnight incubation of 22 h at 37° C. in the incubator, without shaking.
U-Plex MSD GOLD 96-well Small Spot Strepavidin SECTOR Plates (Meso Scale Diagnostics #L45SA-5) were coated with 25 μl diluted capture antibody. Coated plates were incubated for 60 min at room temperature under continuous shaking at 700 rpm. MSD IFNα-2a plates were washed three times with 150 μl wash buffer (1×HBSS, 0.05% Tween).
After blocking the plates with 100 μl block solution/well (1×HBSS with 0.2% Tween, 2% BSA) for 60 min at room temperature and continuous shaking at 700 rpm, plates were emptied as dry as possible by dumping just before continuing with the human plasma.
Whole Blood assay plates were centrifuged at 1600 rpm for 10 minutes. 25 μl of supernatant was transferred with a pipetting robot from each whole blood plate to the corresponding IFNα-2a plate.
Plates were sealed with microplate seals and kept at room temperature again under continuous shaking at 700 rpm for two hours.
Next MSD IFNα-2a plates were washed three times with 150 μl wash buffer (1×HBSS, 0.05% Tween), before adding 25 μl MSD SULFO-TAG IFNα-2a Antibody solution (1:100 diluted in Diluent 3 (Meso Scale Diagnostics #R50AP-2) to each well of the plates.
Afterwards plates were sealed with microplate seals and kept at room temperature again under continuous shaking at 700 rpm for two hours. Finally, MSD IFNα-2α plates were washed three times with 150 μl wash buffer (1×HBSS, 0.05% Tween). 150 μl 2× Read buffer was added to each well and plates were immediately measured with the MSD Sector S600 Reader using the vendor barcode.
For data evaluation and calculation, % control calculation of each well was based on the mean of high (DNA stimulated control) and mean of low (unstimulated control) controls by using the following formula: [counts(sample)−counts(low))/(counts(high)−counts(low))]*100
The IC50 values were calculated using the standard 4 parameter logistic regression formula. Calculation: [y=(a−d)/(1+(x/c)^b)+d], a=low value, d=high value; x=conc M; c=1C50 M; b=slope

Row | Structure (SMILES) | IC50 [1] [nM] | Ratio THP(cGAMP) IC50/THP(vir) IC50 [1] | IC50 [2] [nM] | IC50 (Human cGAS) [nM] | IC50 [3] [nM]
1 | C[C@H]1COCC[C@]1(O)c1cc(Cl)cnc1O[C@H]1C[C@@H](C(=O)O)N(c2nc(C(F)F)nc3c2oc2ccccc23)C1 [Example 1.01, (2S,4S)-4-({5-Chloro-3-[(3S,4R)-4-hydroxy-3-methyloxan-4-yl]pyridin-2-yl}oxy)-1-[4-(difluoro-methyl)-8-oxa-3,5-diazatricyclo[7.4.0.0^2,7]trideca-1(13),2,4,6,9,11-hexaen-6-yl]pyrrolidine-2-carboxylic acid] | 530 | >31 | > 16600 | 5 | 
2 | C#Cc1cnc(O[C@H]2C[C@@H](C(=O)O)N(c3nc(C(F)F)nc4c3oc3ccccc34)C2)c([C@@]2(F)CCOC[C@@H]2C)c1 [Example 1.02] | 351 | 54 | 18900 | 3 | 103
3 | C#Cc1cnc(O[C@H]2C[C@@H](C(=O)O)N(c3nc(C(F)F)nc4c3oc3ccccc34)C2)c([C@]2(F)CCOC[C@@H]2C)c1 [Example 1.03] | 283 | >59 | > 16600 | 2 | 137
4 | C#Cc1cnc(O[C@H]2C[C@@H](C(=O)O)N(c3nc(C(F)(F)F)nc4c3oc3ccccc34)C2)c([C@]2(F)CCOC[C@@H]2C)c1 [Example 1.04] | 378 | 66 | 24900 | 4 | 648
5 | CO[C@]1(c2cc(Cl)cnc2O[C@H]2C[C@@H](C(=O)O)N(c3nc(C(F)F)nc4c3oc3ccccc34)C2)CC(C)(C)S(=O)(=O)C[C@@H]1C [Example 1.05] | 44 | 298 | 13200 | 2 | 135
6 | C[C@H]1CS(=O)(=O)C(C)(C)C[C@]1(F)c1cc(Cl)cnc1O[C@H]1C[C@@H](C(=O)O)N(c2nc(C(F)(F)F)nc3c2oc2ccccc23)C1 [Example 1.06] | 12 | 479 | 5820 | 5 | 24
7 | C[C@H]1CS(=O)(=O)C(C)(C)C[C@@]1(F)c1cc(Cl)cnc1O[C@H]1C[C@@H](C(=O)O)N(c2nc(C(F)(F)F)nc3c2oc2ccccc23)C1 [Example 1.07] | 216 | 17 | 3680 | 69 | 213
8 | C#Cc1cnc(O[C@H]2C[C@@H](C(=O)O)N(c3nc(C(F)(F)F)nc4c3oc3ccccc34)C2)c([C@@]2(F)CC(C)(C)S(=O)(=O)C[C@@H]2C)c1 [Example 1.08] | 4 | 3275 | 13900 | 4 | 16
9 | C#Cc1cnc(O[C@H]2C[C@@H](C(=O)O)N(c3nc(C(F)F)nc4c3oc3ccccc34)C2)c([C@@]2(F)CC(C)(C)S(=O)(=O)C[C@@H]2C)c1 [Example 1.09] | < 5 | >2935 | 15800 | 4 | 4
10 | C#Cc1cnc(O[C@H]2C[C@@H](C(=O)O)N(c3nc(C(F)F)nc4c3oc3ccccc34)C2)c([C@]2(F)CC(C)(C)S(=O)(=O)C[C@@H]2C)c1 [Example 1.10] | 82 | 28 | 2240 | 40 | 70
11 | C[C@H]1CS(=O)(=O)CC[C@@]1(F)c1cc(Cl)cnc1O[C@H]1C[C@@H](C(=O)O)N(c2nc(C(F)F)nc3c2oc2ccccc23)C1 [Example 1.11] | 731 |  | > 16600 | 2 | 194
12 | C[C@@H]1CS(=O)(=O)CC[C@@]1(F)c1cc(Cl)cnc1O[C@H]1C[C@@H](C(=O)O)N(c2nc(C(F)F)nc3c2oc2ccccc23)C1 [Example 1.12] | 314 |  | 15300 | 9 | 
13 | C[C@H]1CS(=O)(=O)CC[C@]1(F)c1cc(Cl)cnc1O[C@H]1C[C@@H](C(=O)O)N(c2nc(C(F)F)nc3c2oc2ccccc23)C1 [Example 1.13] | 6 |  | 22500 | 2 | 6
14 | C#Cc1cnc(O[C@H]2C[C@@H](C(=O)O)N(c3nc(C(F)(F)F)nc4c3oc3ccccc34)C2)c([C@]2(F)CCS(=O)(=O)C(C)(C)C2)c1 [Example 1.14] | 42 | 127 | 5280 | 9 | 53
15 | C#Cc1cnc(O[C@H]2C[C@@H](C(=O)O)N(c3nc(C(F)F)nc4c3oc3ccccc34)C2)c([C@]2(F)CCS(=O)(=O)C(C)(C)C2)c1 [Example 1.15] | 11 | 963 | 10200 | 6 | 22
16 | C[C@H]1CS(=O)(=O)C(C)(C)C[C@]1(F)c1cc(Cl)cnc1O[C@H]1C[C@@H](C(=O)O)N(c2nc(C(F)F)nc3c2oc2ccccc23)C1 [Example 1.16] | 8 | 1055 | 8240 | 5 | 6

Row | Structure (SMILES) | IC50 [1] [nM] | Ratio THP(cGAMP) IC50/THP(vir) IC50 [1] | IC50 [2] [nM] | IC50 (Human cGAS) [nM] | IC50 [3] [nM]
17 | O=C(O)[C@@H]1C[C@H](Oc2ncc(Cl)cc2[C@]2(F)CCS(=O)(=O)C3(CC3)C2)CN1c1nc(C(F)F)nc2c1oc1ccccc12 [Example 1.17] | 54 | 412 | 22100 | 3 | 45
18 | O=C(O)[C@@H]1C[C@H](Oc2ncc(Cl)cc2[C@@]2(F)CCS(=O)(=O)C3(CC3)C2)CN1c1nc(C(F)F)nc2c1oc1ccccc12 [Example 1.18] | 535 | 20 | 10900 | 9 | 287
19 | O=C(O)[C@@H]1C[C@H](Oc2ncc(Cl)cc2[C@@]2(F)CCS(=O)(=O)C3(COC3)C2)CN1c1nc(C(F)F)nc2c1oc1ccccc12 [Example 1.19] | 566 | 25 | 14000 | 5 | 316
20 | O=C(O)[C@@H]1C[C@H](Oc2ncc(Cl)cc2[C@]2(F)CCS(=O)(=O)C3(COC3)C2)CN1c1nc(C(F)F)nc2c1oc1ccccc12 [Example 1.20] | 139 | 111 | 15500 | 3 | 55
21 | O=C(O)[C@@H]1C[C@H](Oc2ncc(Cl)cc2[C@]2(F)CCS(=O)(=O)C3(CCC3)C2)CN1c1nc(C(F)F)nc2c1oc1ccccc12 [Example 1.21] | 126 | 74 | 9280 | 5 | 76
22 | CC(=O)N1CC[C@](F)(c2cc(Cl)cnc2O[C@H]2C[C@@H](C(=O)O)N(c3nc(C(F)F)nc4c3oc3ccccc34)C2)[C@@H](C)C1 [Example 1.22] | 85 | 189 | 16100 | 4 | 114
23 | C[C@H]1CN(C2COC2)CC[C@]1(F)c1cc(Cl)cnc1O[C@H]1C[C@@H](C(=O)O)N(c2nc(C(F)F)nc3c2oc2ccccc23)C1 [Example 1.23] | 185 | 45 | 8400 | 15 | 165
24 | C[C@H]1CN(C(N)=O)CC[C@]1(F)c1cc(Cl)cnc1O[C@H]1C[C@@H](C(=O)O)N(c2nc(C(F)F)nc3c2oc2ccccc23)C1 [Example 1.24] | 248 | 88 | 21800 | 7 | 479
25 | O=C(O)[C@@H]1C[C@H](Oc2ncc(Cl)cc2[C@]2(F)CCOC[C@@H]2C(F)(F)F)CN1c1nc(C(F)F)nc2c1oc1ccccc12 [Example 1.25] | 712 | 19 | 13500 | 10 | 502
26 | O=C(O)[C@@H]1C[C@H](Oc2ncc(Cl)cc2C2(F)CCS(=O)(=O)CC2)CN1c1nc(C(F)F)nc2c1oc1ccccc12 [Example 2.01, (2S,4S)-4-{[5-Chloro-3-(4-fluoro-1,1-dioxo-1-I-6-thian-4-yl)pyridin-2-yl]oxy}-1-[4-(difluoromethyl)-8-oxa-3,5-diazatricyclo[7.4.0.0^2,7]trideca-1(13),2,4,6,9,11-hexaen-6-yl]pyrrolidine-2-carboxylic acid] | 179 | >93 | > 16600 | 3 | 
27 | O=C(O)[C@@H]1C[C@H](Oc2ncc(Cl)cc2C2(F)CCS(=O)(=O)CC2)CN1c1nc(C(F)(F)F)nc2c1oc1ccccc12 [Example 2.02] | 540 | >31 | > 16600 | 4 | 89
28 | C#Cc1cnc(O[C@H]2C[C@@H](C(=O)O)N(c3nc(C(F)F)nc4c3oc3ccccc34)C2)c(C2(F)CCS(=O)(=O)CC2)c1 [Example 2.03] | 112 | >148 | > 16600 | 2 | 40
29 | Cc1nc(N2CCC[C@H]2C(=O)O)c2oc3ccccc3c2n1 [Example 15, reference compound] | > 17000 |  | > 17000 |  | 
30 | Cc1nc(N2C[C@@H](CC(=O)Nc3ccncc3)C[C@H]2C(=O)O)c2oc3ccccc3c2n1 [Example 28, reference compound] | > 32000 |  | > 17000 |  | > 9990
31 | Cc1nc(N2C[C@@H](Nc3ccncc3)C[C@H]2C(=O)O)c2oc3ccccc3c2n1 [Example 38, reference compound] | > 17000 |  | > 17000 |  | > 9990
32 | CC(C)(C(=O)N[C@H]1C[C@@H](C(=O)O)N(c2nc(C(F)(F)F)nc3c2oc2ccccc23)C1)c1cn[nH]c1 [Example 58, reference compound] | 21000 |  | 23000 |  | > 9980
